Assay results as given in patent US20100311756A1, “METHODS FOR DELAYING THE PROGRESSION OF AT LEAST ONE OF CARDIAC HYPERTROPHY, CARDIAC REMODELING OR LEFT VENTRICULAR FUNCTION OR THE ONSET OF HEART FAILURE IN SUBJECTS IN NEED OF TREATMENT THEREOF” (TAKEDA PHARMACEUTICALS NORTH AMERICA, INC., priority 2009, published 2010).

Experiments:
[1] = Schumacher, Expert Opin. Invest. Drugs 2005; cited from earlier work
[2] = test system: post-myocardial infarction rabbits; test: Chronic xanthine oxidase inhibition following myocardial infarction (permanent coronary artery ligation) in rabbits; type: in vivo; settings: for Heart Weight / Heart/Body Weight Ratio: Day 49; for EDV / EF (ejection fraction) / LVIDd / LVIDs / LVPWd / LVPWs / SF (shortening fraction): baseline (Day 0, pre-surgery, before dosing); for Ejection fraction (percent change from baseline) versus vehicle/control / Shortening fraction (percent change from baseline) versus vehicle/control: delayed treatment (from Day 22)
From the text: • Animals Male New Zealand white rabbits (1-2 kg; Clerco Research Farms, Cincinnati, Ohio, USA) were housed in separate cages in an environmentally controlled facility. The animals were subjected to circadian light-dark cycles, maintained on standard rabbit chow (2030C, Harlan Teklad, Madison, Wis., USA) and provided water ad libitum.
The procedures used in this study were reviewed and approved by the Institutional Animal Care and Use Committee (IACUC) of QTest Labs for compliance with regulations and current accepted practices. All applicable sections of the Final Rules of the Animal Welfare Act regulations (Section 9 CFR) and the Public Health Service Policy on Humane Care and Use of Laboratory Animals (OPRR, NIH, 1986) were followed. At the end of the study, all animals were humanely euthanized in accordance with accepted guidelines of the American Veterinary Medical Association (See, American Veterinary Medicine Association (AVMA), 2000 Report of the AVMA Panel on Euthanasia, The Journal of the American Veterinary Medical Association, 218(5):669-696 (2001)). • Drugs Febuxostat and allopurinol (Sigma-Aldrich, St. Louis, Mo., USA) were each formulated as a suspension in 0.5% methylcellulose (Sigma-Aldrich, St. Louis, Mo.) as the vehicle. […] Allopurinol was given orally at 60 mg/kg. […] The rabbits were anesthetized with an intramuscular injection of ketamine (35 mg/kg)/xylazine (5 mg/kg) and pre-surgery enrofloxacin (12 mg/kg). Isoflurane (1-2%) was given during the surgery as required to maintain a deep level of anesthesia and the animals were allowed to breathe 100% oxygen. A limb lead electrocardiogram (ECG) was obtained to monitor sinus rhythm, heart rate, and J-point deviation. The rabbit was placed in dorsal recumbency, and the sternum was exposed by blunt dissection and then incised with scissors. […] Myocardial ischemia was confirmed by regional cyanosis of the myocardial surface and ST-segment elevation on the ECG. The sternum was closed, leaving the pericardial sac as it was. The muscle layers, subcutaneous layer and skin were then closed. Ketofen (1 mg/kg) and buprenorphine (0.03 mg/kg/8 hour) were administered subcutaneously, and the rabbits were placed on a heating pad, covered with a towel, and observed continuously until awake. Post-operative medications given subcutaneously to the rabbits included enrofloxacin (12 mg/kg, b.i.d.), ketofen (0.03 mg/kg, b.i.d.), and buprenorphine ([…], t.i.d. to q.i.d.) for 1 to 3 days as needed. • Experimental Procedures Rabbits were surgically altered (Day 0) to produce MI-induced heart failure and assigned to one of four treatment groups: the vehicle/control group (n=8) received vehicle for 49 consecutive days (7 weeks), the febuxostat/early treatment group (n=8) received febuxostat (10 mg/kg) for 49 consecutive days (7 weeks), the febuxostat/delayed treatment group (n=7) received vehicle for 21 consecutive days (3 weeks) and then febuxostat (10 mg/kg) starting on Day 22 (3 weeks post-surgery) for 28 consecutive days (4 weeks), and the allopurinol/delayed treatment group (n=8) received vehicle for 21 consecutive days and then allopurinol (60 mg/kg) starting on Day 22 (3 weeks post-surgery) for 28 consecutive days (4 weeks). All treatments were started on Day 1 (i.e. the day after surgery) and administered by oral gavage (2 mL/kg). The animals were fasted overnight prior to each day of dosing.
On Day 0 (baseline, pre-surgery), and on Days 21 (end of week 3) and 49 (end of week 7) at approximately one hour after dosing, the rabbits were sling restrained for ECG acquisition.

[3] = delayed treatment: vehicle 21 days then oral FBS 10 mg/kg/day or AL 60 mg/kg/day for 28 days
[4] = early treatment: FBS 10 mg/kg/day oral for 49 days from 1 day after coronary occlusion
[5] = early treatment from one day after ligation, Day 21, still apparent on Day 49

Row | Structure (SMILES) | Route of elimination [1] | Heart Weight [2, 3] [g] | Heart/Body Weight Ratio [2, 3] [%] | EDV ([2]; delayed treatment group) [mL] | EF (ejection fraction) ([2]; delayed treatment group) [%] | LVIDd ([2]; delayed treatment group) [cm] | LVIDs ([2]; delayed treatment group) [cm] | LVPWd ([2]; delayed treatment group) [cm] | LVPWs ([2]; delayed treatment group) [cm] | SF (shortening fraction) ([2]; delayed treatment group) [%] | Ejection fraction (percent change from baseline) versus vehicle/control ([2]; Days 21 and 49) | Shortening fraction (percent change from baseline) versus vehicle/control ([2]; Days 21 and 49) | other results
1 | Oc1ncnc2[nH]ncc12 [allopurinol] | mainly cleared by the kidneys | 6.59 ± 0.30 | 0.24 ± 0.01 | 2.21 ± 0.21 | 74 ± 1.9 | 1.29 ± 0.05 | 0.77 ± 0.03 | 0.31 ± 0.02 | 0.46 ± 0.02 | 40 ± 1.7 | not significantly different | not significantly different | –
2 | Cc1nc(-c2ccc(OCC(C)C)c(C#N)c2)sc1C(=O)O [febuxostat, 2-[3-cyano-4-(2-methylpropoxy)phenyl]-4-methylthiazole-5-carboxylic acid] | hepatic metabolism | 6.65 ± 0.27 | 0.28 ± 0.01 | 1.42 ± 0.13 | 71 ± 1.7 | 1.11 ± 0.04 | 0.70 ± 0.02 | 0.32 ± 0.02 | 0.44 ± 0.02 | 36 ± 1.2 | not significantly different | not significantly different | Heart Weight [2, 4]: small trend toward a lower; Heart/Body Weight Ratio [2, 4]: 0.25 ± 0.01%; Heart Weight ([2]; early treatment: FBS 10 mg/kg/day oral for 49 days from 1 day after coronary occlusion, listed as FBS): 6.38 ± 0.19 g; EDV ([2]; early treatment group): 1.94 ± 0.25 mL; EF (ejection fraction) ([2]; early treatment group): 68 ± 1.8 %; LVIDd ([2]; early treatment group): 1.25 ± 0.04 cm; LVIDs ([2]; early treatment group): 0.82 ± 0.03 cm; LVPWd ([2]; early treatment group): 0.26 ± 0.02 cm; LVPWs ([2]; early treatment group): 0.49 ± 0.02 cm; SF (shortening fraction) ([2]; early treatment group): 34 ± 1.4 %; Reduction of ejection fraction (percent change from baseline) versus vehicle/control [2, 5]: significantly lessened; Reduction of shortening fraction (percent change from baseline) versus vehicle/control [2, 5]: significantly lessened; Increase in LVIDd versus vehicle/control ([2]; early treatment, Day 21): less of an increase; Increase in end diastolic volume versus vehicle/control ([2]; early treatment, Day 21): less of an increase; Increase in LVIDs versus vehicle/control ([2]; early treatment, Day 21, reaching statistical significance): less of an increase; Left ventricular posterior wall dimension during diastole, change from baseline ([2]; early treatment, Days 21 and 49): no reduction
